Key:
Test in all cases: relative viability (nuclei count vs DMSO), 5 days (fraction); higher = more cells survive
A-427 = tested on: A-427
Outline: (§1)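 Medians of duplicate plates are given as relative viability. That measure is the nuclei count in treated wells divided by the count in vehicle wells. Counts were taken on 4× images of lung cancer cell lines in 1536-well plates, 5 days after pin-tool dosing the day after seeding with one drug alone or a fixed anchor-drug dose plus five library-drug doses (not always all listed) in √10 steps.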

COR-L 105 = tested on: COR-L 105
Outline: as §1

ChaGo-K-1 = tested on: ChaGo-K-1
Outline: as §1

EKVX = tested on: EKVX
Outline: as §1

EMC-BAC-2 = tested on: EMC-BAC-2
Outline: as §1

H3255 = tested on: H3255
Outline: as §1

HCC-366 = tested on: HCC-366
Outline: as §1

LK-2 = tested on: LK-2
Outline: as §1

LOU-NH91 = tested on: LOU-NH91
Outline: as §1

NCI-H1666 = tested on: NCI-H1666
Outline: as §1

NCI-H1734 = tested on: NCI-H1734
Outline: as §1

NCI-H1755 = tested on: NCI-H1755
Outline: as §1

NCI-H1975 = tested on: NCI-H1975
Outline: as §1

NCI-H2170 = tested on: NCI-H2170
Outline: as §1

NCI-H23 = tested on: NCI-H23
Outline: as §1

NCI-H441 = tested on: NCI-H441
Outline: as §1

NCI-H520 = tested on: NCI-H520
Outline: as §1

NCI-H596 = tested on: NCI-H596
Outline: as §1

PC-3 [JPC-3] = tested on: PC-3 [JPC-3]
Outline: as §1

SK-MES-1 = tested on: SK-MES-1
Outline: as §1

SW 900 = tested on: SW 900
Outline: as §1

CC(=O)O[C@@]12CO[C@@H]1C[C@H](O)[C@@]1(C)C(=O)[C@H](O)C3=C(C)[C@@H](OC(=O)[C@H](O)[C@@H](NC(=O)OC(C)(C)C)c4ccccc4)C[C@@](O)([C@@H](OC(=O)c4ccccc4)[C@H]21)C3(C)C [Docetaxel] + CC(=O)Nc1cccc(-n2c(=O)n(C3CC3)c(=O)c3c(Nc4ccc(I)cc4F)n(C)c(=O)c(C)c32)c1 [Trametinib] (partner 0.02 µM)
relative viability (A-427; first compound 0.0002 µM): 0.765
relative viability (A-427; first compound 0.000632 µM): 0.775
relative viability (A-427; first compound 0.002 µM): 0.552
relative viability (A-427; first compound 0.006325 µM): 0.388
relative viability (A-427; first compound 0.02 µM): 0.216
relative viability (COR-L 105; first compound 0.0002 µM): 0.399
relative viability (COR-L 105; first compound 0.000632 µM): 0.445
relative viability (COR-L 105; first compound 0.002 µM): 0.428
relative viability (COR-L 105; first compound 0.006325 µM): 0.339
relative viability (COR-L 105; first compound 0.02 µM): 0.392
relative viability (ChaGo-K-1; first compound 0.0002 µM): 0.871
relative viability (ChaGo-K-1; first compound 0.000632 µM): 0.815
relative viability (ChaGo-K-1; first compound 0.002 µM): 0.443
relative viability (ChaGo-K-1; first compound 0.006325 µM): 0.323
relative viability (ChaGo-K-1; first compound 0.02 µM): 0.157
relative viability (EKVX; first compound 0.0002 µM): 0.343
relative viability (EKVX; first compound 0.000632 µM): 0.358
relative viability (EKVX; first compound 0.002 µM): 0.185
relative viability (EKVX; first compound 0.006325 µM): 0.286
relative viability (EKVX; first compound 0.02 µM): 0.131
relative viability (EMC-BAC-2; first compound 0.0002 µM): 0.874
relative viability (EMC-BAC-2; first compound 0.000632 µM): 0.76
relative viability (EMC-BAC-2; first compound 0.002 µM): 0.554
relative viability (EMC-BAC-2; first compound 0.006325 µM): 0.476
relative viability (EMC-BAC-2; first compound 0.02 µM): 0.385
relative viability (H3255; first compound 0.0002 µM): 0.554
relative viability (H3255; first compound 0.000632 µM): 0.635
relative viability (H3255; first compound 0.002 µM): 0.52
relative viability (H3255; first compound 0.006325 µM): 0.361
relative viability (H3255; first compound 0.02 µM): 0.303
relative viability (HCC-366; first compound 0.0002 µM): 0.303
relative viability (HCC-366; first compound 0.000632 µM): 0.102
relative viability (HCC-366; first compound 0.002 µM): 0.0555
relative viability (HCC-366; first compound 0.006325 µM): 0.0799
relative viability (HCC-366; first compound 0.02 µM): 0.0179
relative viability (LK-2; first compound 0.0002 µM): 0.683
relative viability (LK-2; first compound 0.000632 µM): 0.528
relative viability (LK-2; first compound 0.002 µM): 0.304
relative viability (LK-2; first compound 0.006325 µM): 0.187
relative viability (LK-2; first compound 0.02 µM): 0.136
relative viability (LOU-NH91; first compound 0.0002 µM): 0.766
relative viability (LOU-NH91; first compound 0.000632 µM): 0.783
relative viability (LOU-NH91; first compound 0.002 µM): 0.607
relative viability (LOU-NH91; first compound 0.006325 µM): 0.449
relative viability (LOU-NH91; first compound 0.02 µM): 0.354
relative viability (NCI-H1666; first compound 0.0002 µM): 0.846
relative viability (NCI-H1666; first compound 0.000632 µM): 0.695
relative viability (NCI-H1666; first compound 0.002 µM): 0.645
relative viability (NCI-H1666; first compound 0.006325 µM): 0.771
relative viability (NCI-H1666; first compound 0.02 µM): 0.521
relative viability (NCI-H1734; first compound 0.0002 µM): 0.615
relative viability (NCI-H1734; first compound 0.000632 µM): 0.54
relative viability (NCI-H1734; first compound 0.002 µM): 0.351
relative viability (NCI-H1734; first compound 0.006325 µM): 0.337
relative viability (NCI-H1734; first compound 0.02 µM): 0.198
relative viability (NCI-H1755; first compound 0.0002 µM): 0.766
relative viability (NCI-H1755; first compound 0.000632 µM): 0.743
relative viability (NCI-H1755; first compound 0.002 µM): 0.555
relative viability (NCI-H1755; first compound 0.006325 µM): 0.415
relative viability (NCI-H1755; first compound 0.02 µM): 0.381
relative viability (NCI-H1975; first compound 0.0002 µM): 0.386
relative viability (NCI-H1975; first compound 0.000632 µM): 0.263
relative viability (NCI-H1975; first compound 0.002 µM): 0.241
relative viability (NCI-H1975; first compound 0.006325 µM): 0.167
relative viability (NCI-H1975; first compound 0.02 µM): 0.148
relative viability (NCI-H2170; first compound 0.0002 µM): 0.887
relative viability (NCI-H2170; first compound 0.000632 µM): 0.848
relative viability (NCI-H2170; first compound 0.002 µM): 0.746
relative viability (NCI-H2170; first compound 0.006325 µM): 0.222
relative viability (NCI-H2170; first compound 0.02 µM): 0.167
relative viability (NCI-H23; first compound 0.0002 µM): 0.377
relative viability (NCI-H23; first compound 0.000632 µM): 0.294
relative viability (NCI-H23; first compound 0.002 µM): 0.278
relative viability (NCI-H23; first compound 0.006325 µM): 0.195
relative viability (NCI-H23; first compound 0.02 µM): 0.132
relative viability (NCI-H441; first compound 0.0002 µM): 0.389
relative viability (NCI-H441; first compound 0.000632 µM): 0.255
relative viability (NCI-H441; first compound 0.002 µM): 0.202
relative viability (NCI-H441; first compound 0.006325 µM): 0.187
relative viability (NCI-H441; first compound 0.02 µM): 0.144
relative viability (NCI-H520; first compound 0.0002 µM): 0.565
relative viability (NCI-H520; first compound 0.000632 µM): 0.711
relative viability (NCI-H520; first compound 0.002 µM): 0.243
relative viability (NCI-H520; first compound 0.006325 µM): 0.206
relative viability (NCI-H520; first compound 0.02 µM): 0.119
relative viability (NCI-H596; first compound 0.0002 µM): 0.807
relative viability (NCI-H596; first compound 0.000632 µM): 0.997
relative viability (NCI-H596; first compound 0.002 µM): 0.642
relative viability (NCI-H596; first compound 0.006325 µM): 0.555
relative viability (NCI-H596; first compound 0.02 µM): 0.277
relative viability (PC-3 [JPC-3]; first compound 0.0002 µM): 0.684
relative viability (PC-3 [JPC-3]; first compound 0.000632 µM): 0.701
relative viability (PC-3 [JPC-3]; first compound 0.002 µM): 0.604
relative viability (PC-3 [JPC-3]; first compound 0.006325 µM): 0.431
relative viability (PC-3 [JPC-3]; first compound 0.02 µM): 0.279
relative viability (SK-MES-1; first compound 0.0002 µM): 0.63
relative viability (SK-MES-1; first compound 0.000632 µM): 0.758
relative viability (SK-MES-1; first compound 0.002 µM): 0.436
relative viability (SK-MES-1; first compound 0.006325 µM): 0.313
relative viability (SK-MES-1; first compound 0.02 µM): 0.185
relative viability (SW 900; first compound 0.0002 µM): 0.802
relative viability (SW 900; first compound 0.000632 µM): 0.287
relative viability (SW 900; first compound 0.002 µM): 0.232
relative viability (SW 900; first compound 0.02 µM): 0.163

— the supplement of paper PMC10307832
